Test results published in patent US9360486B2, “Allergen fragments” (Biomay AG, priority 2007, dated 2016).

Test system: Amb a 1-specific T cell lines (TCL)
Experiment: T cell epitope mapping of Amb a 1.3: proliferation (3H-thymidine uptake) of TCL stimulated with synthetic peptides
Format: cell-based, human
Details: for No. positive patients SI > 3 / No. positive patients SI > 5 / % (positive patients SI > 3) / % (positive patients SI > 5): TCL from 48 ragweed pollen-allergic patients, peptide 5 μg/ml; for No. positive patients SI > 3 / No. positive patients SI > 5: 3H-thymidine uptake after 48 hrs; for No. positive patients SI > 3 / % (positive patients SI > 3): stimulation index > 3; for No. positive patients SI > 5 / % (positive patients SI > 5): stimulation index > 5; for T cell activating region recognized by % of patients: classes of prevalence referring to SI>5, 48 TCL
Outline: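 Amb a 1-specific TCL from ragweed-allergic patients, raised with ragweed extract or rAmb a 1.3, stimulated 48 h with 121 overlapping 12-mer peptides plus one C-terminal 13-mer (9-residue overlap) at 5 μg/ml. Proliferation by 3H-thymidine uptake; SI against the mean cpm of the ten least stimulating peptides, epitope when SI ≥3.0.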

Sequence	reactivity with T cells isolated from allergic individuals	No. positive patients SI > 3	No. positive patients SI > 5	% (positive patients SI > 3) [%]	% (positive patients SI > 5) [%]	T cell activating region recognized by % of patients	T cell reactivity with samples from individuals suffering from ragweed pollen allergy
PTILCQGNRFLA (Amb a 1 fragment) [Peptide 94]	reactivity with T cells	11	9	22.9	18.8	recognized by 18.8%	
PVQSAGMIPAEP (Amb a 1 fragment) [Peptide 114]	reactivity with T cells	8	5	16.7	10.4		
PVQSAGMIPAEPGEA (Amb a 1 fragment) [Peptide 114-115]	reactivity with T cells					recognized by 35.4%	
QACEAYNIIDKC (Amb a 1 fragment) [Peptide 7]		1	0	2.1	0.0		
QELVVNSDKTID (Amb a 1 fragment) [Peptide 36]	reactivity with T cells	14	12	29.2	25.0		
QELVVNSDKTIDGRG (Amb a 1 fragment) [Peptide 36-37]	reactivity with T cells					recognized by 25.0%	
QGFAKGTYGGKW (Amb a 1 fragment) [Peptide 17]		2	1	4.2	2.1		
QIKKNVLARTGT (Amb a 1 fragment) [Peptide 99]	reactivity with T cells	8	4	16.7	8.3		
QIWIDHCSLSKS (Amb a 1 fragment) [Peptide 61]	reactivity with T cells	29	24	60.4	50.0		
QNRPLWIIFKND (Amb a 1 fragment) [Peptide 30]	reactivity with T cells	11	9	22.9	18.8		
QNRPLWIIFKNDMVI (Amb a 1 fragment) [Peptide 30-31]	reactivity with T cells					recognized by 20.8%	
RCRFGFFQVVNN (Amb a 1 fragment) [Peptide 85]		4	1	8.3	2.1		
RMPRCRFGFFQV (Amb a 1 fragment) [Peptide 84]		3	1	6.3	2.1		
RQASDGDTINVA (Amb a 1 fragment) [Peptide 56]		1	1	2.1	2.1		
RSLQACEAYNII (Amb a 1 fragment) [Peptide 6]		1	0	2.1	0.0		
RWGTYAIGGSSA (Amb a 1 fragment) [Peptide 90]	reactivity with T cells	5	3	10.4	6.3		
SAEGVGEILPSV (Amb a 1 fragment) [Peptide 1]		2	0	4.2	0.0		
SAGMIPAEPGEA (Amb a 1 fragment) [Peptide 115]	reactivity with T cells	18	17	37.5	35.4		
SAGVLSCRPGAPC (Amb a 1 fragment) [Peptide 121]	reactivity with T cells	6	2	12.5	4.2		

Sequence	reactivity with T cells isolated from allergic individuals	No. positive patients SI > 3	No. positive patients SI > 5	% (positive patients SI > 3) [%]	% (positive patients SI > 5) [%]	T cell activating region recognized by % of patients	T cell reactivity with samples from individuals suffering from ragweed pollen allergy
SDGDTINVAGSS (Amb a 1 fragment) [Peptide 57]		0	0	0.0	0.0		
SDKTIDGRGVKV (Amb a 1 fragment) [Peptide 38]	reactivity with T cells	13	11	27.1	22.9		
SDKTIDGRGVKVEIINGG (Amb a 1 fragment) [Peptide 38-40]	reactivity with T cells					recognized by 33.3%	
SDPVLTPVQSAG (Amb a 1 fragment) [Peptide 112]	reactivity with T cells	7	3	14.6	6.3		
SKAILLGADDTH (Amb a 1 fragment) [Peptide 73]		4	2	8.3	4.2		
SKSFDGLVDVTL (Amb a 1 fragment) [Peptide 64]		3	1	6.3	2.1		
SSAPTILCQGNR (Amb a 1 fragment) [Peptide 93]	reactivity with T cells	6	4	12.5	8.3		
TDNVDQRMPRCR (Amb a 1 fragment) [Peptide 82]		3	2	6.3	4.2		
TGTGAAESMAWN (Amb a 1 fragment) [Peptide 102]	reactivity with T cells	9	6	18.8	12.5		
TIDGRGVKVEII (Amb a 1 fragment) [Peptide 39]	reactivity with T cells	19	16	39.6	33.3		
TQQSKAILLGAD (Amb a 1 fragment) [Peptide 72]		4	2	8.3	4.2		
TSGSDPVLTPVQ (Amb a 1 fragment) [Peptide 111]	reactivity with T cells	16	11	33.3	22.9		
TSNLDDDVANPK (Amb a 1 fragment) [Peptide 23]		2	1	4.2	2.1		
TYAIGGSSAPTI (Amb a 1 fragment) [Peptide 91]	reactivity with T cells	13	11	27.1	22.9	recognized by 22.9%	high T cell reactivity
TYGGKWGDVYTV (Amb a 1 fragment) [Peptide 19]		2	0	4.2	0.0		
VAFNMFTDNVDQ (Amb a 1 fragment) [Peptide 80]	reactivity with T cells	10	6	20.8	12.5		
VAFNMFTDNVDQRMP (Amb a 1 fragment) [Peptide 80-81]	reactivity with T cells					recognized by 12.5%	
VDQRMPRCRFGF (Amb a 1 fragment) [Peptide 83]	reactivity with T cells	10	8	20.8	16.7	recognized by 16.7%	
VKVEIINGGLTL (Amb a 1 fragment) [Peptide 41]	reactivity with T cells	5	1	10.4	2.1		
